{"source": "ChEMBL document CHEMBL5321287", "about": "“Discovery, Synthesis, and Evaluation of Novel Dual Inhibitors of a Vascular Endothelial Growth Factor Receptor and Poly(ADP-Ribose) Polymerase for BRCA Wild-Type Breast Cancer Therapy” (J Med Chem, 2023)", "key": {"MDA-MB-231 [1]": {"system": "MDA-MB-231", "experiment": "Induction of HR DNA repair in human MDA-MB-231 cells xenografted in BALB/c nude mouse assessed as decrease in BRCA1 level at 50 mg/kg, po for 14 days in presence of 1:1 of compound:Pazopanib by H and E staining based IHC analysis", "format": "functional, organism-based", "conditions": "time 14.0 day"}, "MCF7 [2]": {"system": "MCF7", "experiment": "Antimigratory activity in human MCF7 cells assessed as downregulation of MMP-2 level at 4 uM incubated for 2 days by immunoblot analysis", "format": "functional, cell-based", "conditions": "time 2.0 day"}, "MDA-MB-231 [3]": {"system": "MDA-MB-231", "experiment": "Antimetastatic activity against human MDA-MB-231 cells xenografted in lungs of BALB/c nude mouse assessed as decrease in lung metastatic nodules at 50 mg/kg administered once a day measured after 14 days in presence of 1:1 of compound:Olaparib", "format": "functional, organism-based", "conditions": "time 14.0 day"}, "MDA-MB-231 [4]": {"system": "MDA-MB-231", "experiment": "Antimigratory activity in human MDA-MB-231 cells xenografted in lungs of BALB/c nude mouse assessed as decrease in MMP2 level in lungs at 50 mg/kg administered once a day measured after 14 days in presence of 1:1 of compound:Olaparib by IHC analysis", "format": "functional, organism-based", "conditions": "time 14.0 day"}, "HUVEC": {"system": "HUVEC", "experiment": "cells", "conditions": "Homo sapiens, 48 h"}, "MCF7 [5]": {"system": "MCF7", "experiment": "Antimigratory activity in human MCF7 cells assessed as upregulation of E-cadherin level at 4 uM by DAPI staining based immunofluorescence analysis", "format": "functional, cell-based"}, "MDA-MB-231 [6]": {"system": "MDA-MB-231", "experiment": "Downregulation of Olaparib-induced PAR expression in human MDA-MB-231 cells at 4 uM incubated for 2 days by Western blot analysis", "format": "functional, cell-based", "conditions": "time 2.0 day"}, "[7]": {"target": "Vascular endothelial growth factor receptor 1 (Homo sapiens, UniProt P17948)", "sequence (P17948 whole entry)": "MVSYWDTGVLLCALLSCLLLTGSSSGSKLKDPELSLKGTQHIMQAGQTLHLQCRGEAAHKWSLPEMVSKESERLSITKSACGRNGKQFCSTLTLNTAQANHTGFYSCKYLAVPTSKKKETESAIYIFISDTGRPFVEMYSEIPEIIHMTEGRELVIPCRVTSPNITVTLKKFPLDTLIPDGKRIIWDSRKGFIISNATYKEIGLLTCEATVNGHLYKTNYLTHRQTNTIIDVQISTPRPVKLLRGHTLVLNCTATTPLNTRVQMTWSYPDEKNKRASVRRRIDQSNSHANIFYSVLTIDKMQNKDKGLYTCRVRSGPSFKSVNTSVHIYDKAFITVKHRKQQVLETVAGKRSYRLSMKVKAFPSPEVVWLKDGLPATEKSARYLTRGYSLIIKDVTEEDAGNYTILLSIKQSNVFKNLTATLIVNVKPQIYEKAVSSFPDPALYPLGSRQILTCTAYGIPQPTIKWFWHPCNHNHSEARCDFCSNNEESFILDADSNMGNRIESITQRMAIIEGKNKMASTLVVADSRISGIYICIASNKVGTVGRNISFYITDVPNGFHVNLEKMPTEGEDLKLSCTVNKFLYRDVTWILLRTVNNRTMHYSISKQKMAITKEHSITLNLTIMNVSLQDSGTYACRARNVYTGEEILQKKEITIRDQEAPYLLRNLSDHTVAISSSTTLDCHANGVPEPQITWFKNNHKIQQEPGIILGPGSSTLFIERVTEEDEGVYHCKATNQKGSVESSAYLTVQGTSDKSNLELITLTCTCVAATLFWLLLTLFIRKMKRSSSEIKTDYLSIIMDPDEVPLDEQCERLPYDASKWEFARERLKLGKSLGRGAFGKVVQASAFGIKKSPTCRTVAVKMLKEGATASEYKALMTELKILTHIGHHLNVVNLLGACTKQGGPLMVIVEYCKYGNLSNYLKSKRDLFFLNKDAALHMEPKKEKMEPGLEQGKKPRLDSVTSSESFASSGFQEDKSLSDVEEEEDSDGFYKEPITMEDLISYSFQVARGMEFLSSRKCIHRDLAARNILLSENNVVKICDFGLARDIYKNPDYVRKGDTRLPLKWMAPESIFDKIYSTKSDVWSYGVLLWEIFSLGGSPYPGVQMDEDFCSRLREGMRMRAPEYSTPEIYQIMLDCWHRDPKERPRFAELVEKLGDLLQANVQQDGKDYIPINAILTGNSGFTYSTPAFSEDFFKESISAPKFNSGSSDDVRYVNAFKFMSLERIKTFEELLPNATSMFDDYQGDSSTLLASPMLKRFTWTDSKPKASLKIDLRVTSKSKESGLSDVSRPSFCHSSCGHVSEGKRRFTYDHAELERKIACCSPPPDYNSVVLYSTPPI", "experiment": "Inhibition of VEGFR1 phosphorylation at tyr1333 residue in human MDA-MB-231 cells xenografted in BALB/c nude mouse at 25 to 50 mg/kg, po for 14 days in presence of 1:1 of compound:Olaparib by Western blot analysis", "format": "organism-based", "conditions": "dose 25-50 mg/kg, time 14.0 day"}, "MDA-MB-231 [8]": {"system": "MDA-MB-231", "experiment": "Antimigratory activity in human MDA-MB-231 cells assessed as downregulation of MMP-2 level at 4 uM incubated for 2 days by immunoblot analysis", "format": "functional, cell-based", "conditions": "time 2.0 day"}, "MDA-MB-231 [9]": {"system": "MDA-MB-231", "experiment": "Induction of cell cycle arrest at G2/M phase in human MDA-MB-231 cells at 4 uM in presence of 1:1 of compound:Olaparib by Annexin-V-FLUOS staining based flow cytometry", "format": "functional"}, "MCF7 [10]": {"system": "MCF7", "experiment": "Induction of DNA damage in human MCF7 cells assessed as increase in gamma-H2AX level at 4 uM incubated for 48 hrs in presence of 1:1 of compound:Olaparib by DAPI staining based immunofluorescence analysis", "format": "functional, cell-based"}, "MDA-MB-231 [11]": {"system": "MDA-MB-231", "experiment": "Induction of HR DNA repair in human MDA-MB-231 cells xenografted in BALB/c nude mouse assessed as decrease in FOXM1 level at 50 mg/kg, po for 14 days in presence of 1:1 of compound:Olaparib by H and E staining based IHC analysis", "format": "functional, organism-based", "conditions": "time 14.0 day"}, "MDA-MB-231 [12]": {"system": "MDA-MB-231", "experiment": "Antimigratory activity in human MDA-MB-231 cells assessed as upregulation of E-cadherin level at 4 uM by DAPI staining based immunofluorescence analysis", "format": "functional, cell-based"}, "MCF7 [13]": {"system": "MCF7", "experiment": "Induction of apoptosis in human MCF7 cells assessed as decrease in Bcl-2 level at 4 uM incubated for 2 days in presence of 1:1 of compound:Olaparib by immunoblot analysis", "format": "functional, cell-based", "conditions": "time 2.0 day"}, "MDA-MB-231 [14]": {"system": "MDA-MB-231", "experiment": "Induction of apoptosis in human MDA-MB-231 cells assessed as increase in cleaved caspase-3 level at 4 uM incubated for 2 days in presence of 1:1 of compound:Olaparib by immunoblot analysis", "format": "functional, cell-based", "conditions": "time 2.0 day"}, "MCF7 [15]": {"system": "MCF7", "experiment": "Antiinvasive activity against human MCF7 cells at 4 uM incubated for 12 hrs in presence of 1:1 of compound:Olaparib by transwell assay", "format": "functional, cell-based"}, "MDA-MB-231 [16]": {"system": "MDA-MB-231", "experiment": "Antimigratory activity in human MDA-MB-231 cells assessed as upregulation of E-cadherin level at 4 uM in presence of 1:1 of compound:Olaparib by DAPI staining based immunofluorescence analysis", "format": "functional, cell-based"}, "MCF7 [17]": {"system": "MCF7", "experiment": "Inhibition of colony formation in human MCF7 cells at 4 uM incubated for 10 days in presence of 1:1 of compound:Olaparib by crystal violet staining based assay", "format": "functional, cell-based", "conditions": "time 10.0 day"}, "MDA-MB-231 [18]": {"system": "MDA-MB-231", "experiment": "Antiproliferation activity against human MDA-MB-231 cells xenografted in BALB/c nude mouse assessed as decrease in Ki67 expression at 50 mg/kg, po for 14 days in presence of 1:1 of compound:Olaparib by H and E staining based IHC analysis", "format": "functional, organism-based", "conditions": "time 14.0 day"}, "MDA-MB-231 [19]": {"system": "MDA-MB-231", "experiment": "Induction of hypoxia in human MDA-MB-231 cells assessed as upregulation of HIF-1alpha level at 4 uM incubated for 2 days in presence 1:1 of Olaparib by Western blot analysis", "format": "functional, cell-based", "conditions": "time 2.0 day"}, "MCF7 [20]": {"system": "MCF7", "experiment": "Antiproliferation activity against human MCF7 cells assessed as decrease in Ki67 expression at 4 uM incubated for 48 hrs in presence of 1:1 of compound:Olaparib by immunofluorescence analysis", "format": "functional, cell-based"}, "MCF7 [21]": {"system": "MCF7", "experiment": "Induction of DNA damage in human MCF7 cells assessed as increase in comet tail length at 4 uM in presence 1:1 of Olaparib by alkaline comet assay", "format": "functional, cell-based"}, "MDA-MB-231 [22]": {"system": "MDA-MB-231", "experiment": "Antimigratory activity in human MDA-MB-231 cells assessed as upregulation of E-cadherin level at 4 uM incubated for 2 days in presence of 1:1 of compound:Olaparib by immunoblot analysis", "format": "functional, cell-based", "conditions": "time 2.0 day"}, "MCF7 [23]": {"system": "MCF7", "experiment": "Antimigratory activity in human MCF7 cells assessed as upregulation of E-cadherin level at 4 uM incubated for 2 days in presence of 1:1 of compound:Olaparib by immunoblot analysis", "format": "functional, cell-based", "conditions": "time 2.0 day"}, "HCC1937": {"system": "HCC1937", "experiment": "cells", "conditions": "Homo sapiens"}, "MDA-MB-231 [24]": {"system": "MDA-MB-231", "experiment": "Induction of HR DNA repair in human MDA-MB-231 cells xenografted in BALB/c nude mouse assessed as decrease in BRCA1 level at 50 mg/kg, po for 14 days in presence of 1:1 of compound:Olaparib by H and E staining based IHC analysis", "format": "functional, organism-based", "conditions": "time 14.0 day"}, "MDA-MB-436": {"system": "MDA-MB-436", "experiment": "Antiproliferative activity against human MDA-MB-436 cells assessed as cell growth inhibition"}, "MCF7 [25]": {"system": "MCF7", "experiment": "Antimigratory activity in human MCF7 cells assessed as downregulation of MMP-2 level at 4 uM by DAPI staining based immunofluorescence analysis", "format": "functional, cell-based"}, "MDA-MB-231 [26]": {"system": "MDA-MB-231", "experiment": "Induction of HR DNA repair in human MDA-MB-231 cells assessed as decrease in RAD51 level at 4 uM incubated for 48 hrs by DAPI staining based immunofluorescence analysis", "format": "functional, cell-based"}, "MDA-MB-231 [27]": {"system": "MDA-MB-231", "experiment": "Induction of DNA damage in human MDA-MB-231 cells xenografted in BALB/c nude mouse assessed as increase in gamma-H2AX level at 50 mg/kg, po for 14 days in presence of 1:1 of compound:Olaparib by H and E staining based IHC analysis", "format": "functional, organism-based", "conditions": "time 14.0 day"}, "MDA-MB-231 [28]": {"system": "MDA-MB-231", "experiment": "Induction of DNA damage in human MDA-MB-231 cells xenografted in BALB/c nude mouse assessed as increase in gamma-H2AX level at 50 mg/kg, po for 14 days in presence of 1:1 of compound:Olaparib by Western blot analysis", "format": "functional, organism-based", "conditions": "time 14.0 day"}, "[29]": {"target": "Vascular endothelial growth factor receptor 2 (Homo sapiens, UniProt P35968)", "sequence (P35968 whole entry)": "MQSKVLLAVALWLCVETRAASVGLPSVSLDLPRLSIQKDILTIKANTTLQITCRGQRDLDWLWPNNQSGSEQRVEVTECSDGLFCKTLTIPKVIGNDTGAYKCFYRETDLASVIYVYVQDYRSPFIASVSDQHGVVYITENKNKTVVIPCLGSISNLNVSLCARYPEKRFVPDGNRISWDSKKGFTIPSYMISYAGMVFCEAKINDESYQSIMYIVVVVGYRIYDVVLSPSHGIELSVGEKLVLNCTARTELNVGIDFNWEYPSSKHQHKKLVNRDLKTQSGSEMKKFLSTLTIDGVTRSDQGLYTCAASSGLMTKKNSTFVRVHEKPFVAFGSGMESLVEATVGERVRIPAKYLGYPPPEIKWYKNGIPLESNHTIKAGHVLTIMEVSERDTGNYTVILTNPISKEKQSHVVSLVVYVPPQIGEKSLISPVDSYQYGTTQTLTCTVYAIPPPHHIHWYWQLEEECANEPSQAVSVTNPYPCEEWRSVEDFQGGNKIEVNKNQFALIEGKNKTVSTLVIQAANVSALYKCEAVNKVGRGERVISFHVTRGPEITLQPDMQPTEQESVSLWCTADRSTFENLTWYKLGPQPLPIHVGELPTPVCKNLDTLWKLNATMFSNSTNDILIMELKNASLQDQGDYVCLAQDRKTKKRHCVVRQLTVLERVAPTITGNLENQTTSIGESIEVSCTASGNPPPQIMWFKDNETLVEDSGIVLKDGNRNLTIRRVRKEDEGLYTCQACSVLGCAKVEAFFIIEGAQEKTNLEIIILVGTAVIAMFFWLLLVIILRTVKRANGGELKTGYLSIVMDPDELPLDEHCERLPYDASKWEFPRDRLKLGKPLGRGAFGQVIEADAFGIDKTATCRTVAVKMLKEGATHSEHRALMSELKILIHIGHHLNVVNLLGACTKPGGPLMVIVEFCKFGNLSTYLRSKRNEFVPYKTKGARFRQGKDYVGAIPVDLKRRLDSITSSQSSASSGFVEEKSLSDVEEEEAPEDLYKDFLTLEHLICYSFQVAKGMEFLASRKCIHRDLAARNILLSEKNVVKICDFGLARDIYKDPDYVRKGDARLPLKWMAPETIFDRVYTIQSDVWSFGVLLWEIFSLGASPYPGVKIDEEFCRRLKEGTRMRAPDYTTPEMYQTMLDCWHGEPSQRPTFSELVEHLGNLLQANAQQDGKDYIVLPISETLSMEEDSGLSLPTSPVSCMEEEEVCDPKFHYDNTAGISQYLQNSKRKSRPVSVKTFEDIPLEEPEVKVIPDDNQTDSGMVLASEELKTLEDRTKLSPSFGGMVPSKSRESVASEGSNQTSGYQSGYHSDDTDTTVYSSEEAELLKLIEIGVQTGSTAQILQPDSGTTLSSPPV", "conditions": "MDA-MB-231, dose 25-50 mg/kg, route po, time 14.0 day"}}, "note": "pIC50: −log10 of the molar value. Activity calls are given as the source filed them. The calls are words filed in the database; no cut-off is given here.", "data": [{"smiles": "Cc1ccc(Nc2nccc(N(C)c3ccc4c(C)n(C)nc4c3)n2)cc1S(N)(=O)=O", "note": "[PAZOPANIB]", "values": [{"measurement": "Activity", "setting": "MDA-MB-231 [1]", "result": "Active"}, {"measurement": "Activity", "setting": "MCF7 [2]", "result": "Active"}, {"measurement": "Activity", "setting": "MDA-MB-231 [3]", "result": "Active"}, {"measurement": "Activity", "setting": "MDA-MB-231 [4]", "result": "Active"}, {"measurement": "pIC50", "setting": "HUVEC", "result": 5.34}, {"measurement": "Activity", "setting": "MCF7 [5]", "result": "Active"}, {"measurement": "Activity", "setting": "MDA-MB-231 [6]", "result": "inactive"}, {"measurement": "inhibition", "setting": "[7]", "result": "Active"}, {"measurement": "Activity", "setting": "MDA-MB-231 [8]", "result": "Active"}, {"measurement": "Activity", "setting": "MDA-MB-231 [9]", "result": "Active"}, {"measurement": "Activity", "setting": "MCF7 [10]", "result": "Active"}, {"measurement": "Activity", "setting": "MDA-MB-231 [11]", "result": "Active"}, {"measurement": "Activity", "setting": "MDA-MB-231 [12]", "result": "Active"}, {"measurement": "Activity", "setting": "MCF7 [13]", "result": "Active"}, {"measurement": "Activity", "setting": "MDA-MB-231 [14]", "result": "Active"}, {"measurement": "Activity", "setting": "MCF7 [15]", "result": "Active"}, {"measurement": "Activity", "setting": "MDA-MB-231 [16]", "result": "Active"}, {"measurement": "inhibition", "setting": "MCF7 [17]", "result": "Active"}, {"measurement": "Activity", "setting": "MDA-MB-231 [18]", "result": "Active"}, {"measurement": "Activity", "setting": "MDA-MB-231 [19]", "result": "Active"}, {"measurement": "Activity", "setting": "MCF7 [20]", "result": "Active"}, {"measurement": "Activity", "setting": "MCF7 [21]", "result": "Active"}, {"measurement": "Activity", "setting": "MDA-MB-231 [22]", "result": "Active"}, {"measurement": "Activity", "setting": "MCF7 [23]", "result": "Active"}, {"measurement": "pIC50", "setting": "HCC1937", "result": "< 5.00"}, {"measurement": "Activity", "setting": "MDA-MB-231 [24]", "result": "Active"}, {"measurement": "pIC50", "setting": "MDA-MB-436", "result": "< 5.00"}, {"measurement": "Activity", "setting": "MCF7 [25]", "result": "Active"}, {"measurement": "Activity", "setting": "MDA-MB-231 [26]", "result": "Active"}, {"measurement": "Activity", "setting": "MDA-MB-231 [27]", "result": "Active"}, {"measurement": "Activity", "setting": "MDA-MB-231 [28]", "result": "Active"}, {"measurement": "inhibition", "setting": "[29]", "result": "Active"}]}]}
